In patent US5470830A, “Motilin-like polypeptides that inhibit gastrointestinal motor activity” (Ohmeda Pharmaceutical Products Division Inc., priority 1993, dated 1995):
Where a SMILES comes first, the peptide text is derived from it. [ ]: non-standard residue; d: D form. 2Thi = N[C@@H](Cc1cccs1)C(=O)O; Cha = N[C@@H](CC1CCCCC1)C(=O)O

Legend:
[1] = target: T1, motilin receptor (rabbit antral smooth muscle membranes) (Oryctolagus cuniculus, UniProt G1T803); test: Motilin receptor binding affinity: displacement of [125I-Tyr7,Nle13]motilin(porcine); details: negative logarithm of concentration displacing 50% of [125I-Tyr7,Nle13]motilin(porcine) from rabbit antral smooth muscle membranes; read-out: pIC50 (converted)
T1 construct: from tissue; host or cells: rabbit antral smooth muscle membranes
T1 sequence (G1T803 1-400): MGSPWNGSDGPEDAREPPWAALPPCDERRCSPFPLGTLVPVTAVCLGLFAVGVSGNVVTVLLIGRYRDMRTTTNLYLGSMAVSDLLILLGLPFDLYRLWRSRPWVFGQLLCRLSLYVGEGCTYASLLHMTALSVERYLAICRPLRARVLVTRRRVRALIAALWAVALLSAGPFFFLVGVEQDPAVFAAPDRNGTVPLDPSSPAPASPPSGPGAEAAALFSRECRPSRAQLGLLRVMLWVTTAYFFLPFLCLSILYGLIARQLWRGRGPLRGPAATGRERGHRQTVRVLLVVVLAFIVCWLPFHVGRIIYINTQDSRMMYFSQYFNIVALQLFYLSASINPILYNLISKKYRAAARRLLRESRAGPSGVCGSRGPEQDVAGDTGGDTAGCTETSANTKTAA
Method: The motilin receptor binding affinity of the peptides of this invention was determined by using the general procedure of Bormans, Peelers and Vantrappen, Regul. Pept., 15, 143-153 (1986). The ability of the peptides to displace [^125 I-Tyr^7,Nle^13 ]motilin(porcine) bound to rabbit antral smooth muscle membranes, was determined by testing twice, each time in duplicate, at concentrations ranging from 10^-11 to 10^-4 M. The concentration displacing 50% of the label (IC50) was determined by fitting the data to the equation describing displacement, assuming a single class of motilin receptors to which labeled and non-labeled motilin bind with equal affinity and non-cooperatively. Fitting was performed using the iterative least-squares procedure of the SAS-software package (SAS Institute, Inc., Cary, N.C., U.S.A.). […] The concentration displacing 50% of the label is expressed using its negative logarithm (pIC50).

[2] = target: segments of rabbit duodenum (Oryctolagus cuniculus, UniProt G1T803); test: Rabbit duodenal smooth muscle strip tissue bath assay (contractile response); type: cell-based; details: contractility; negative logarithm of dose giving 50% of maximal response to motilin; compounds tested 10^-11 to 10^-4 M
segments of rabbit duodenum, sequence (G1T803 1-400): as above
Method: The experimental protocol consisted of an equilibration period of 1 hour: a challenge with 10^-4 M acetylcholine followed by a wash-out period; a cumulative dose-response curve of a compound with, at the end, the addition of 10^-7 M motilin; and finally 10^-4 M acetylcholine. If the final response to 10^-4 M acetylcholine differed by more than 5% from the initial response, the results were discarded.

motilin receptor = target: T2, motilin receptor (Oryctolagus cuniculus, UniProt G1T803); test: Motilin receptor antagonism: contractile response of rabbit duodenum to motilin in presence of compound; type: cell-based
T2 construct: segments of rabbit duodenum; from tissue; host or cells: segments of rabbit duodenum
T2 sequence (G1T803 1-400): as above
Method: To determine motilin receptor antagonism, the contractile response of segments of rabbit duodenum to motilin was determined isotonically in the tissue bath in the presence of a fixed concentration of the compound of interest. The experimental protocol consisted of an equilibration period of 1 hour; a challenge with 10^-4 M acetylcholine followed by a wash-out period; a cumulative motilin dose-response curve in the presence of the motilin receptor antagonist; and finally a challenge with 10^-4 M acetylcholine. If the final response to 10^-4 M acetylcholine differed by more than 5% from the initial response, the results were discarded. The point corresponding to 50% of the maximal response to motilin (Emax) was determined by fitting the equation
through the data points. The dose of motilin giving 50% of the response is expressed using its negative logarithm (pEC50). Compounds of interest were tested at concentrations of 10^-8 to 10^-5 M.

Row | IC50 [1] [µM] | pEC50 [2] | block of the full contractile response to motilin (motilin receptor; compound at 10^-5 M) | shift of the dose-response curve of motilin (motilin receptor; compound at 10^-6 M) | Compound
1 | 0.0162 | < 4.5 | completely blocked | shifted by about one log unit | H-FVFIFTYGELQRLQ-OH [[Phe^3, Leu^13]pMOT(1-14), H-Phe-Val-Phe-Ile-Phe-Thr-Tyr-Gly-Glu-Leu-Gln-Arg-Leu-Gln-OH]
2 | 0.0257 | < 4.5 | – | – | CC[C@H](C)[C@H](NC(=O)[C@H](Cc1cccs1)NC(=O)[C@@H](NC(=O)[C@@H](N)Cc1ccccc1)C(C)C)C(=O)N[C@@H](Cc1ccccc1)C(=O)N[C@H](C(=O)N[C@@H](Cc1ccc(O)cc1)C(=O)NCC(=O)N[C@@H](CCC(=O)O)C(=O)N[C@@H](CC(C)C)C(=O)N[C@@H](CCC(N)=O)C(=O)N[C@@H](CCCNC(=N)N)C(=O)N[C@@H](CC(C)C)C(=O)N[C@@H](CCC(N)=O)C(=O)O)[C@@H](C)O [[Thi^3, Leu^13]pMOT(1-14), H-Phe-Val-Thi-Ile-Phe-Thr-Tyr-Gly-Glu-Leu-Gln-Arg-Leu-Gln-OH] (H-FV[2Thi]IFTYGELQRLQ-OH)
3 | 0.000977 | < 4.5 | – | – | CC[C@H](C)[C@H](NC(=O)[C@H](Cc1ccccc1)NC(=O)[C@@H](NC(=O)[C@@H](N)Cc1ccccc1)C(C)C)C(=O)N[C@@H](Cc1ccccc1)C(=O)N[C@H](C(=O)N[C@@H](Cc1ccc(O)cc1)C(=O)NCC(=O)N[C@@H](CCC(=O)O)C(=O)N[C@@H](CC(C)C)C(=O)N[C@@H](CCC(N)=O)C(=O)N[C@@H](CCCNC(=N)N)C(=O)N[C@@H](CC(C)C)C(=O)N[C@H](CCC(N)=O)C(N)=O)[C@@H](C)O [H-Phe-Val-Phe-Ile-Phe-Thr-Tyr-Gly-Glu-Leu-Gln-Arg-Leu-D-Gln-NH2] (H-FVFIFTYGELQRL[dQ]-NH2)
4 | 0.0251 | < 4.5 | – | – | CC[C@H](C)[C@H](NC(=O)[C@H](Cc1ccccc1)NC(=O)[C@@H](NC(=O)[C@@H](N)Cc1ccccc1)C(C)C)C(=O)N[C@@H](CC1CCCCC1)C(=O)N[C@H](C(=O)N[C@@H](Cc1ccc(O)cc1)C(=O)NCC(=O)N[C@@H](CCC(=O)O)C(=O)N[C@@H](CC(C)C)C(=O)N[C@@H](CCC(N)=O)C(=O)N[C@@H](CCCNC(=N)N)C(=O)N[C@@H](CC(C)C)C(=O)N[C@@H](CCC(N)=O)C(=O)O)[C@@H](C)O [[Phe^3, Cha^5, Leu^13]pMOT(1-14), H-Phe-Val-Phe-Ile-Cha-Thr-Tyr-Gly-Glu-Leu-Gln-Arg-Leu-Gln-OH] (H-FVFI[Cha]TYGELQRLQ-OH)
